These results are taken from ChEMBL document CHEMBL1201862, “PubChem BioAssay data set” (2004).

Common to all, as to assay: growth of human tumour cells (NCI), 48 h
For test [1], the system named is DU-145.
Test [2] concerns OVCAR-5.
The test system of test [3] is SW-620.
Test [4] has as its system OVCAR-3.
Test [5] concerns M14.
In test [6] the test system is SK-MEL-2.
Test [7] concerns HL-60.
The test system of test [8] is OVCAR-4.
Test [9] deals with CCRF-CEM.
The test system of test [10] is RXF 393.
Test [11] has as its system K562.
Test [12] relates to 786-0.
In test [13] the test system is NCI-H226.
Test [14] relates to A549.
For test [15], the system named is HOP-62.
Test [16] relates to EKVX.
For test [17], the system named is TK-10.
The subject of test [18] is SK-MEL-28.
For test [19], the system named is SF-268.
The subject of test [20] is NCI-H460.

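These data come from cells grown in 96-well plates and exposed to compound for 48 hours at five concentrations. Abbreviation: GI50, concentration required for 50% inhibition of growth.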 The source made the active and inactive calls. No stated cut-off is given here; in the data, active = GI50 up to about 1.1 µM and inactive = higher. Some results are limits rather than exact numbers.

For `O=C(Nc1nnc(-c2c(Cl)c(Cl)c(Cl)c(Cl)c2-c2nc3cc(C(=O)c4ccccc4)ccc3[nH]2)o1)c1ccc(Cl)cc1`, the GI50 in [1] is 58.6 µM (inactive); in test [2] it was > 100 µM (inactive); in test [3] it was 57 µM (inactive); in [4], 13.8 µM (inactive); in [5] it was 35.5 µM (inactive); in test [6] it was 29.6 µM (inactive). For the same compound, the GI50 in test [7] was 20.3 µM (inactive); in [8] it was 24.7 µM (inactive); in test [9], 6.27 µM (inactive); in test [10] it was 26.5 µM (inactive); in test [11], 7.91 µM (inactive); in [12], 30.3 µM (inactive). Also, the GI50 in test [13] is 26.4 µM (inactive); in [14] it was 25.6 µM (inactive); in test [15], 12.8 µM (inactive); in test [16], 25.9 µM (inactive); in test [17], 51.9 µM (inactive); in [18], 36.7 µM (inactive).
For `O=C(N/N=C\c1c(O)ccc2ccccc12)c1ccncc1`, the GI50 is 2.88 µM (inactive) in test [1]; > 6.85 µM (inactive) in [2]; 0.769 µM (active) in test [3]; 1.22 µM (inactive) in test [4]; 0.474 µM (active) in test [5]; 0.257 µM (active) in [6]. Moreover, the GI50 in test [7] was 0.518 µM (active); in test [19], 0.341 µM (active); in test [8], 0.237 µM (active); in test [9] it was 0.0887 µM (active); in [10], 0.383 µM (active); in test [11], 0.0553 µM (active). The GI50 is 0.2 µM (active) in test [12]; 0.628 µM (active) in [13]; 0.789 µM (active) in test [14]; 1.31 µM (inactive) in test [15]; > 7.23 µM (inactive) in [17]; 0.649 µM (active) in test [18].
On to `CNc1cccc2c1C(C)C[C@]1(C)C(=O)Nc3ccccc3[C@H]21` (stereo not given in full), for which the GI50 is 39.1 µM (inactive) in test [1]; 31.1 µM (inactive) in test [2]; 33.9 µM (inactive) in test [3]; 17.5 µM (inactive) in test [4]; 20.2 µM (inactive) in [5]; 24.1 µM (inactive) in test [6]. The GI50 was > 100 µM (inactive) in test [7]; 34 µM (inactive) in test [19]; 18.1 µM (inactive) in test [8]; 40.7 µM (inactive) in test [9]; 23.2 µM (inactive) in test [10]; > 100 µM (inactive) in test [11]. The GI50 in test [12] is 17.9 µM (inactive); in test [20], 21.2 µM (inactive); in test [13], 24.9 µM (inactive); in test [14], 20 µM (inactive); in [15], 19.8 µM (inactive); in [16] it was 41.7 µM (inactive). In addition, the GI50 in test [17] is 13.8 µM (inactive); in test [18], 30.3 µM (inactive).
As to `O=C1C=C(NCCOCCO)C(=O)c2c(O)ccc(O)c21`, the GI50 in test [1] is 99.3 µM (inactive); in [2] it was > 100 µM (inactive); in test [3], 18.1 µM (inactive); in test [4], 23.6 µM (inactive); in [5], 22.5 µM (inactive); in test [6], 20.1 µM (inactive). The GI50 was 15.3 µM (inactive) in test [7]; 31.8 µM (inactive) in test [19]; 18 µM (inactive) in [8]; 27.4 µM (inactive) in test [9]; 33.3 µM (inactive) in [10]; 27.9 µM (inactive) in [11]. Besides, the GI50 in [12] is 37.4 µM (inactive); in [20] it was 29.2 µM (inactive); in test [13] it was > 100 µM (inactive); in [14], 28.1 µM (inactive); in [15] it was 58.6 µM (inactive); in [17] it was > 100 µM (inactive). In addition, the GI50 in test [18] is 69 µM (inactive).
